Assay results: PubChem BioAssay AID1919010 (Molecular Pharmacology Branch, DTP, NCI, 2023)

Test system: Hs578T complex spheroid growth, percent test/control
Assay: Anticancer human tumor Hs578T cell line growth inhibition [AhR];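 further: luminescent viability signal as a proxy for spheroid growth; spheroids exposed to agents for one week after three days of growth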
Settings: for IC50: curve of first compound; for viability, T/C: stronger effect = lower value
Outline: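 Complex tumor spheroids co-cultured with HUVEC and human MSC stroma; AhR antagonists tested in combination with standard-of-care and investigational agents. Top concentration at or near clinical Cmax (else 10 microM), half-log dilutions; growth expressed as percent test/control.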

[1] = second compound 0.1 µM, first compound 0.0316 µM
[2] = second compound 0.1 µM, first compound 0.1 µM
[3] = second compound 0.1 µM, first compound 0.316 µM
[4] = second compound 0.1 µM, first compound 1 µM
[5] = second compound 0.1 µM, first compound 3.16 µM
[6] = second compound 0.1 µM, first compound 10 µM
[7] = second compound 0.316 µM, first compound 0.0316 µM
[8] = second compound 0.316 µM, first compound 0.1 µM
[9] = second compound 0.316 µM, first compound 0.316 µM
[10] = second compound 0.316 µM, first compound 1 µM
[11] = second compound 0.316 µM, first compound 3.16 µM
[12] = second compound 0.316 µM, first compound 10 µM
[13] = second compound 1 µM, first compound 0.0316 µM
[14] = second compound 1 µM, first compound 0.1 µM
[15] = second compound 1 µM, first compound 0.316 µM
[16] = second compound 1 µM, first compound 1 µM
[17] = second compound 1 µM, first compound 3.16 µM
[18] = second compound 1 µM, first compound 10 µM
[19] = second compound 3.16 µM, first compound 0.0316 µM
[20] = second compound 3.16 µM, first compound 0.1 µM
[21] = second compound 3.16 µM, first compound 0.316 µM
[22] = second compound 3.16 µM, first compound 1 µM
[23] = second compound 3.16 µM, first compound 3.16 µM
[24] = second compound 3.16 µM, first compound 10 µM
[25] = second compound 10 µM, first compound 0.0316 µM
[26] = second compound 10 µM, first compound 0.1 µM
[27] = second compound 10 µM, first compound 0.316 µM
[28] = second compound 10 µM, first compound 1 µM
[29] = second compound 10 µM, first compound 3.16 µM
[30] = second compound 10 µM, first compound 10 µM

Row | SMILES | IC50 (second compound 0.1 µM) [nM] | IC50 (second compound 0.316 µM) [nM] | IC50 (second compound 1 µM) [nM] | IC50 (second compound 3.16 µM) [nM] | IC50 (second compound 10 µM) [nM] | viability, T/C [1] [%] | viability, T/C [2] [%] | viability, T/C [3] [%] | viability, T/C [4] [%] | viability, T/C [5] [%] | viability, T/C [6] [%] | viability, T/C [7] [%] | viability, T/C [8] [%] | viability, T/C [9] [%] | viability, T/C [10] [%] | viability, T/C [11] [%] | viability, T/C [12] [%] | viability, T/C [13] [%] | viability, T/C [14] [%] | viability, T/C [15] [%] | further results
1 | Nc1ccccc1NC(=O)c1ccc(CNC(=O)OCc2cccnc2)cc1 + Cc1cncc(-c2nc(NCCc3c[nH]c4ccccc34)c3ncn(C(C)C)c3n2)c1 | 1980 | 2150 | 1820 | 460 | < 31.6 | 118 | 115 | 115 | 80.9 | 28.6 | 2.58 | 126 | 116 | 116 | 87.5 | 30.9 | 2.84 | 109 | 106 | 107 | viability, T/C [16]: 76.5%; viability, T/C [17]: 25.1%; viability, T/C [18]: 2.17%; viability, T/C [19]: 72%; viability, T/C [20]: 69.9%; viability, T/C [21]: 55.5%; viability, T/C [22]: 36.5%; viability, T/C [23]: 10.7%; viability, T/C [24]: 0.49%; viability, T/C [25]: 4.97%; viability, T/C [26]: 4.48%; viability, T/C [27]: 2.94%; viability, T/C [28]: 3.5%; viability, T/C [29]: 0.48%; viability, T/C [30]: 0.4%
2 | O=C(C=Cc1cccc(S(=O)(=O)Nc2ccccc2)c1)NO + Cc1cncc(-c2nc(NCCc3c[nH]c4ccccc34)c3ncn(C(C)C)c3n2)c1 | 2280 | 2570 | 2330 | 750 | < 31.6 | 122 | 110 | 106 | 75.6 | 39.8 | 2.43 | 103 | 116 | 93.8 | 79.6 | 44 | 2.11 | 113 | 101 | 98.9 | viability, T/C [16]: 77.2%; viability, T/C [17]: 39.9%; viability, T/C [18]: 1.72%; viability, T/C [19]: 76.3%; viability, T/C [20]: 63.8%; viability, T/C [21]: 63.1%; viability, T/C [22]: 46.8%; viability, T/C [23]: 26.2%; viability, T/C [24]: 0.97%; viability, T/C [25]: 7.33%; viability, T/C [26]: 7.26%; viability, T/C [27]: 4.94%; viability, T/C [28]: 2.69%; viability, T/C [29]: 1.35%; viability, T/C [30]: 0.35%
3 | O=C(c1cc(Cc2n[nH]c(=O)c3ccccc23)ccc1F)N1CCN(C(=O)C2CC2)CC1 + Cc1cncc(-c2nc(NCCc3c[nH]c4ccccc34)c3ncn(C(C)C)c3n2)c1 | > 10000 | > 10000 | > 10000 | > 10000 | < 31.6 | 122 | 120 | 119 | 114 | 103 | 94.8 | 116 | 118 | 132 | 131 | 114 | 107 | 107 | 117 | 122 | viability, T/C [16]: 105%; viability, T/C [17]: 103%; viability, T/C [18]: 97.7%; viability, T/C [19]: 74.7%; viability, T/C [20]: 68.6%; viability, T/C [21]: 77.9%; viability, T/C [22]: 60.3%; viability, T/C [23]: 55.9%; viability, T/C [24]: 69.2%; viability, T/C [25]: 7.27%; viability, T/C [26]: 8.04%; viability, T/C [27]: 6.95%; viability, T/C [28]: 6.36%; viability, T/C [29]: 5.59%; viability, T/C [30]: 7.04%
